In assay [1] the test system is mice exposed to S. aureus. As to the kind of experiment: mouse model of pneumonia induced by nasal insufflation of S. aureus. The assay is classed as in vivo. Here is the method: Bacteria. S. aureus (Ssp. aureus, No. 25923; American Type Culture Collection) was grown as previously described (Suliman H B et al. (2017) Mitochondrial quality control in alveolar epithelial cells damaged by S. aureus pneumonia in mice. American journal of physiology. Lung cellular and molecular physiology 313(4):L699-L709). Dilutions of 5×10^8 CFU were used for mouse experiments, and dilutions of 1×10^8 CFU were used for cell culture experiments. S. pneumoniae (serotype 19, No. 49619; American Type Culture Collection) was grown as previously described (Gomez J C, et al. (2016) Journal of immunology 197(7):2864-2879). Dilutions of 6×10^5 CFU were used for mouse experiments.
CC10 (Scgb1a1)-CreERT; Rosa26R-CAG-farnesylated GFP (Rosa26-fGFP) and SPC (Sftpc)-CreERT2; Rosa26-tdTomato mice were kindly provided by Dr. Mark Onaitis and generated by Dr. Brigid Hogan at Duke University and have been previously described (Rawlins E L, et al. (2009) Cell stem cell 4(6):525-534, Xu X, et al. (2012) Proc Natl Acad Sci USA 109(13):4910-4915). These mice were crossed with Abl1^flox/flox mice (Moresco E M, et al. (2005) J Neurosci 25(26):6105-6118) into a C57BL/6 genetic background. Sox2^tmHoch/J mice (referred to as SOX2-eGFP mice in the text) were purchased from the Jackson Laboratory. Gt(Rosa) 26Sor^tm9(EGFP/Rpl10z)Amc/J (referred to as L10-eGFP in the text) mice were purchased from the Jackson Laboratory and were crossed to CC10-CreERT; Abl1^flox/flox mice into a C57BL/6 genetic background for the TRAP experiments. To induce expression of Cre-recombinase for both TRAP experiments and lineage tracing experiments, 8to 20-week-old male and female mice were injected intraperitoneally four times every other day with 0.25 mg/g body weight Tamoxifen (Sigma-T5648) in corn oil (Spectrum-CO136). Exposure to S. aureus was initiated 15 days after the last dose of Tamoxifen. Alternatively, mice were inoculated with purified Adenovirus5-CC10-Cre virus obtained from the University of Iowa Viral Vector Core Facility and generated by Dr. Anton Berns (Netherlands Cancer Institute). 10 μL of stock virus solution was mixed in 30 μL of Minimum Essential Medium and delivered intranasally twice, three days apart, three weeks prior to induction of S. aureus pneumonia. Mice were anesthetized using 0.3 mg xylazine and […] ketamine intraperitoneally prior to intranasal inoculation with a 50 μL dilution of 5×10^8 S. aureus. The mice were monitored daily for weight loss and signs of respiratory distress and euthanized in an isofluorane chamber at days 0, 1, 2, and 3 after inoculation. All experiments were performed under the Duke University IACUC approved protocols: A098-16-04 and A130-16-06. Male and female mice at different ages (8 to 20 weeks old) were evaluated for differential response to drug (Abl kinase inhibitors and tamoxifen) and/or injury, and no significant effects of age and gender were observed.
Inhibitors. GNF5 (N-(2-Hydroxyethyl)-3-(6-(4-(trifluoromethoxy)phenylamino)pyrimidin-4-yl)benzamide) was synthesized at the Duke University's Small Molecule Synthesis Facility, and validated by LC-MS and 1H-NMR/FT-IR spectra and with cell-based assays that confirm potencies and cell signaling inhibitory activities. For in vivo experiments, GNF5 was prepared in a suspension with 0.5% methylcellulose and 0.5% Tween-80 at a concentration of 10 mg/mL, and mice were treated with either 20 mg/kg, 40 mg/kg, or 100 mg/kg b.i.d. via oral gavage.
Bronchoalveolar lavage preparation and assays. Bronchoalveolar lavage (BAL) fluid was collected immediately after euthanasia three days after exposure to S. aureus as previously described (Suliman H B, et al. (2017) Lung cellular and molecular physiology 313(4):L699-L709). Bilateral BAL was performed using two 1 mL aliquots of sterile PBS with approximately 75-80% retrieval per mouse. […]

The test system of assay [2] is Basal cells (bronchospheres). Put plainly: bronchosphere 3D Matrigel culture assay. The assay is classed as cell-based, human. Here is the method:
The effect of Abl kinase inhibition on the development of bronchospheres in a 3D Matrigel culture assay was also evaluated. Basal cells were cultured in Matrigel at passage 1 and treated with vehicle control, the Abl kinase inhibitor, GNF5, or the Abl kinase activator, DPH, for three days starting two days after plating the cells.

For another assay, the system named is Abl kinases. The conditions noted are these: Zhang J. et al. (2010) Nature 463:501-506; cited from earlier work.
The subject of assay [3] is Kras G12D/+; p53 -/- driven lung tumors. The assay is classed as in vivo, mouse. The conditions noted are these: GNF5 b.i.d.; docetaxel at sub-therapeutic dose; vehicle four-fold increase.

The text below walks through data of patent publication US12419891B2, “Compositions for the treatment of pathogenic- and/or chemical-induced lung injury and for the treatment of cancer and methods of using same” (Duke University, priority 2019, dated 2025).

Regarding `O=C(NCCO)c1cccc(-c2cc(Nc3ccc(OC(F)(F)F)cc3)ncn2)c1` [GNF5, N-(2-Hydroxyethyl)-3-(6-(4-(trifluoromethoxy)phenylamino)pyrimidin-4-yl)benzamide], the “activity and appearance of mice” value in assay [1] (24 h after injury, vs vehicle control-treated mice) is “active and exhibited a healthy appearance”. For the same compound, the “lung injury in lung tissue sections (H&E)” value in assay [1] (72 hours post-infection, treatment started 1 h after insufflation) is listed as “significant decrease in lung injury”. For the same compound, the “proportion of GFP+ (Scgb1a1 driver) SPC+ cells” value in assay [1] (CC10-CreER, Rosa26-fGFP mice, three days after injury, vs vehicle) is “significant increase”. Further, in assay [1] (SOX2-eGFP mice, 100 mg/kg b.i.d. oral gavage from 24 h before insufflation, three days after injury, vs vehicle), the “proportion of SOX2+ SPC+ cells expanding from bronchioles into lung parenchyma” value is on record as “dramatic increase”. In addition, the “alveolar damage (loss of alveolar area/volume compared to uninfected mice)” value in assay [1] (SPC-CreERT2, Rosa26-tdTomato mice, 3 days after injury, vs Abl1 wt or fl/fl mice) is recorded as “reduced damage”. Moreover, the “tdTomato+, RAGE+ (Type I) cells derived from tdTomato+, SPC+, RAGE- (Type II) cells” value in assay [1] (SPC-CreERT2, Rosa26-tdTomato mice, three days after injury) is reported as “detected at sites of damage only in mice treated with GNF5”. The “proportion of tdTomato+ (Sftpc driver) RAGE+ Type I AECs” value in assay [1] (SPC-CreERT2, Rosa26-tdTomato mice, vs untreated wild-type and Abl1 knockout) is listed as “increase in the proportion”. The “SPC expression in SCGB1A1+ cells within the bronchioles” value in assay [1] (after injury) was “enhanced SPC expression”. Also, in assay [1] (day 3 post-infection, treatment started 24 hours after injury (Post)), the BAL protein concentration result is recorded as “significant reduction in protein concentration”. In addition, the BAL protein concentration result in assay [1] (day 3 post-infection, treatment started 24 hours prior to injury (Pre)) is recorded as “significant reduction in protein concentration”. In addition, in assay [1] (day 3 post-infection, vs control mice), the “recovery of alveolar epithelium (RAGE staining)” value is listed as “recovered more rapidly”. Besides, the “recovery of mice after injury” value in assay [1] (two doses, 1 hour and 16 hours after injury, evaluated after 24 hours, vs vehicle) is reported as “sufficient to promote recovery after 24 hours”. Further, in assay [2] (bronchosphere lysates), the “SOX2 (basal cell marker) expression, immunoblot” value is “decrease in the basal cell marker, SOX2” and the “acetylated α-tubulin (ciliated cell marker) expression, immunoblot” value is given as “increase in the ciliated cell marker, acetylated α-tubulin”. In addition, the “bronchosphere growth: basal cell proliferation and differentiation” value in assay [2] (treated three days starting two days after plating) is “promoted basal cell proliferation and differentiation”. In addition, the “Ki67 (proliferation marker) protein expression” value in assay [2] (vs untreated cells) is listed as “increase in protein expression of the proliferation marker, Ki67”. In addition, in the assay with Abl kinases, the “selectivity versus other protein kinases” value is listed as “does not inhibit other protein kinases”. The “change in tumor size over a two-week period (μCT)” value in assay [3] is listed as “two-fold increase in tumor size”.
